Results reported in ChEMBL document CHEMBL1201862, “PubChem BioAssay data set” (2004).
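These data come from cells grown in 96-well plates and exposed to compound for 48 hours at five concentrations. GI50 = concentration required for 50% inhibition of growth.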 The source made the active and inactive calls. No stated cut-off is given here; in the data, active = GI50 up to about 1.1 µM and inactive = higher.

Key:
Assay in all cases: NCI-60 cell line screen, 48 h
[1] = system: KM12
[2] = system: OVCAR-8
[3] = system: RPMI-8226
[4] = system: MDA-N
[5] = system: ACHN
[6] = system: NCI/ADR-RES
[7] = system: MDA-MB-435
[8] = system: SF-295
[9] = system: BT-549
[10] = system: RXF 393
[11] = system: NCI-H522
[12] = system: HCT-15
[13] = system: MCF7
[14] = system: SNB-19
[15] = system: MOLT-4
[16] = system: SK-MEL-5
[17] = system: Malme-3M
[18] = system: HCC 2998
[19] = system: A498
[20] = system: CAKI-1
[21] = system: SNB-75
[22] = system: CCRF-CEM
[23] = system: NCI-H23
[24] = system: SF-268
[25] = system: OVCAR-4
[26] = system: EKVX
[27] = system: M14
[28] = system: OVCAR-3
[29] = system: HCT-116
[30] = system: SK-MEL-28
[31] = system: SN12C
[32] = system: K562
[33] = system: HL-60
[34] = system: HOP-92
[35] = system: T47D
[36] = system: HOP-62
[37] = system: SF-539
[38] = system: SW-620
[39] = system: UACC-257
[40] = system: PC-3
[41] = system: DU-145
[42] = system: UACC-62
[43] = system: Hs-578T
[44] = system: LOX IMVI
[45] = system: SR
[46] = system: A549
[47] = system: 786-0
[48] = system: HT-29
[49] = system: SK-OV-3
[50] = system: UO-31
[51] = system: NCI-H460
[52] = system: TK-10
[53] = system: COLO 205
[54] = system: MDA-MB-231
[55] = system: U-251
[56] = system: OVCAR-5
[57] = system: IGROV-1
[58] = system: SK-MEL-2
[59] = system: NCI-H226

C(=N\c1cc2cc(Sc3ccccc3)ccc2[nH]1)/c1ccccc1
GI50 [1]: 0.0931 µM (active) | GI50 [2]: > 12.5 µM (inactive) | GI50 [3]: > 12.5 µM (inactive) | GI50 [4]: 4.91 µM (inactive) | GI50 [5]: > 12.5 µM (inactive) | GI50 [6]: > 12.5 µM (inactive) | GI50 [7]: 4.28 µM (inactive) | GI50 [8]: 11 µM (inactive) | GI50 [9]: > 12.5 µM (inactive) | GI50 [10]: > 12.5 µM (inactive) | GI50 [11]: > 12.5 µM (inactive) | GI50 [12]: > 12.5 µM | GI50 [13]: > 12.5 µM (inactive) | GI50 [14]: > 12.5 µM (inactive) | GI50 [15]: > 12.5 µM (inactive) | GI50 [16]: 10.6 µM (inactive) | GI50 [17]: > 12.5 µM (inactive) | GI50 [18]: 6.41 µM (inactive) | GI50 [19]: 1.83 µM (inactive) | GI50 [20]: > 12.5 µM (inactive) | GI50 [21]: > 12.5 µM (inactive) | GI50 [22]: > 12.5 µM (inactive) | GI50 [23]: > 12.5 µM (inactive) | GI50 [24]: > 12.5 µM (inactive) | GI50 [25]: > 12.5 µM (inactive) | GI50 [26]: > 12.5 µM (inactive) | GI50 [27]: > 12.5 µM (inactive) | GI50 [28]: > 12.5 µM (inactive) | GI50 [29]: > 12.5 µM (inactive) | GI50 [30]: > 12.5 µM (inactive) | GI50 [31]: > 12.5 µM (inactive) | GI50 [32]: 11 µM (inactive) | GI50 [33]: > 12.5 µM (inactive) | GI50 [34]: > 12.5 µM (inactive) | GI50 [35]: > 12.5 µM (inactive) | GI50 [36]: 2.08 µM (inactive) | GI50 [37]: 0.741 µM (active) | GI50 [38]: > 12.5 µM (inactive) | GI50 [39]: > 12.5 µM (inactive) | GI50 [40]: > 12.5 µM (inactive) | GI50 [41]: > 12.5 µM (inactive) | GI50 [42]: 7.11 µM (inactive) | GI50 [43]: > 12.5 µM (inactive) | GI50 [44]: 5.85 µM (inactive) | GI50 [45]: 1.32 µM (inactive) | GI50 [46]: 0.0818 µM (active) | GI50 [47]: > 12.5 µM (inactive) | GI50 [48]: > 12.5 µM (inactive)

COc1ccc(-c2cc(-c3ccc(Cl)cc3)n(C3OC(CO)C(O)C(O)C3O)c(=S)c2C#N)cc1 (stereo not drawn)
GI50 [49]: > 100 µM (inactive) | GI50 [1]: 49.9 µM (inactive) | GI50 [2]: 21 µM (inactive) | GI50 [3]: 30.5 µM (inactive) | GI50 [4]: > 100 µM (inactive) | GI50 [5]: > 100 µM (inactive) | GI50 [7]: 75.5 µM (inactive) | GI50 [50]: 16.8 µM (inactive) | GI50 [8]: > 100 µM (inactive) | GI50 [9]: 35.2 µM (inactive) | GI50 [12]: 38.5 µM | GI50 [51]: 13 µM (inactive) | GI50 [13]: > 10 µM (inactive) | GI50 [14]: > 100 µM (inactive) | GI50 [15]: 5.79 µM (inactive) | GI50 [16]: 16.8 µM (inactive) | GI50 [52]: 30.3 µM (inactive) | GI50 [18]: 64.9 µM (inactive) | GI50 [21]: 89.7 µM (inactive) | GI50 [53]: 51.1 µM (inactive) | GI50 [24]: 20.6 µM (inactive) | GI50 [25]: 30 µM (inactive) | GI50 [27]: 30 µM (inactive) | GI50 [29]: 34.2 µM (inactive) | GI50 [30]: 72.8 µM (inactive) | GI50 [31]: > 100 µM (inactive) | GI50 [54]: 37.5 µM (inactive) | GI50 [32]: > 100 µM (inactive) | GI50 [34]: > 100 µM (inactive) | GI50 [35]: 29.2 µM (inactive) | GI50 [36]: 57.8 µM (inactive) | GI50 [55]: 28.1 µM (inactive) | GI50 [37]: > 100 µM (inactive) | GI50 [56]: 33 µM (inactive) | GI50 [38]: 48.2 µM (inactive) | GI50 [39]: 47.8 µM (inactive) | GI50 [40]: > 100 µM (inactive) | GI50 [57]: 26.5 µM (inactive) | GI50 [41]: 4.04 µM (inactive) | GI50 [42]: > 100 µM (inactive) | GI50 [58]: 26.9 µM (inactive) | GI50 [43]: > 100 µM (inactive) | GI50 [44]: > 100 µM (inactive) | GI50 [45]: 42.9 µM (inactive) | GI50 [47]: 12.5 µM (inactive) | GI50 [48]: 24.2 µM (inactive)

CN1CCN(C(=S)N(C(=O)c2cccs2)C2CCCCC2)CC1
GI50 [1]: > 100 µM (inactive) | GI50 [2]: > 100 µM (inactive) | GI50 [3]: > 100 µM (inactive) | GI50 [4]: > 100 µM (inactive) | GI50 [5]: > 100 µM (inactive) | GI50 [7]: > 100 µM (inactive) | GI50 [50]: > 100 µM (inactive) | GI50 [8]: > 10 µM (inactive) | GI50 [9]: > 100 µM (inactive) | GI50 [10]: > 100 µM (inactive) | GI50 [11]: > 100 µM (inactive) | GI50 [12]: > 100 µM | GI50 [51]: > 100 µM (inactive) | GI50 [13]: > 100 µM (inactive) | GI50 [14]: > 100 µM (inactive) | GI50 [15]: > 10 µM (inactive) | GI50 [16]: > 100 µM (inactive) | GI50 [17]: > 100 µM (inactive) | GI50 [52]: > 100 µM (inactive) | GI50 [59]: > 100 µM (inactive) | GI50 [18]: > 100 µM (inactive) | GI50 [21]: 89.9 µM (inactive) | GI50 [22]: > 10 µM (inactive) | GI50 [23]: > 100 µM (inactive) | GI50 [53]: > 100 µM (inactive) | GI50 [24]: > 100 µM (inactive) | GI50 [25]: > 100 µM (inactive) | GI50 [27]: > 100 µM (inactive) | GI50 [28]: > 100 µM (inactive) | GI50 [30]: > 100 µM (inactive) | GI50 [31]: > 100 µM (inactive) | GI50 [54]: > 100 µM (inactive) | GI50 [32]: > 100 µM (inactive) | GI50 [33]: 24.8 µM (inactive) | GI50 [34]: > 100 µM (inactive) | GI50 [35]: > 100 µM (inactive) | GI50 [55]: > 100 µM (inactive) | GI50 [56]: > 100 µM (inactive) | GI50 [38]: > 100 µM (inactive) | GI50 [39]: > 100 µM (inactive) | GI50 [57]: > 100 µM (inactive) | GI50 [41]: > 100 µM (inactive) | GI50 [42]: > 100 µM (inactive) | GI50 [58]: > 100 µM (inactive) | GI50 [43]: > 100 µM (inactive) | GI50 [44]: > 100 µM (inactive) | GI50 [45]: > 100 µM (inactive) | GI50 [46]: > 100 µM (inactive) | GI50 [47]: > 100 µM (inactive) | GI50 [48]: > 100 µM (inactive)

O=C(COc1cc(=O)oc2ccccc12)c1ccccc1
GI50 [1]: 37.9 µM (inactive) | GI50 [2]: 33 µM (inactive) | GI50 [3]: > 100 µM (inactive) | GI50 [4]: 47 µM (inactive) | GI50 [5]: 19.8 µM (inactive) | GI50 [50]: > 10 µM (inactive) | GI50 [8]: 29.1 µM (inactive) | GI50 [9]: 24.6 µM (inactive) | GI50 [10]: > 10 µM (inactive) | GI50 [11]: 32.4 µM (inactive) | GI50 [12]: > 100 µM | GI50 [51]: > 100 µM (inactive) | GI50 [13]: > 100 µM (inactive) | GI50 [14]: 21.7 µM (inactive) | GI50 [15]: > 100 µM (inactive) | GI50 [16]: 37.7 µM (inactive) | GI50 [17]: > 100 µM (inactive) | GI50 [52]: > 100 µM (inactive) | GI50 [59]: 19.1 µM (inactive) | GI50 [18]: > 100 µM (inactive) | GI50 [19]: 60.7 µM (inactive) | GI50 [20]: 4.69 µM (inactive) | GI50 [21]: 26.4 µM (inactive) | GI50 [22]: 71.6 µM (inactive) | GI50 [23]: 25.2 µM (inactive) | GI50 [24]: 48.5 µM (inactive) | GI50 [25]: 29.6 µM (inactive) | GI50 [26]: > 100 µM (inactive) | GI50 [27]: 42 µM (inactive) | GI50 [28]: 19.4 µM (inactive) | GI50 [29]: 17.9 µM (inactive) | GI50 [30]: 32.3 µM (inactive) | GI50 [31]: > 100 µM (inactive) | GI50 [54]: 83.8 µM (inactive) | GI50 [32]: > 100 µM (inactive) | GI50 [33]: > 100 µM (inactive) | GI50 [34]: 16.7 µM (inactive) | GI50 [35]: 25.4 µM (inactive) | GI50 [36]: 37.8 µM (inactive) | GI50 [55]: 17.7 µM (inactive) | GI50 [37]: 21.5 µM (inactive) | GI50 [56]: > 100 µM (inactive) | GI50 [38]: 44.8 µM (inactive) | GI50 [39]: > 100 µM (inactive) | GI50 [57]: 26.9 µM (inactive) | GI50 [41]: > 100 µM (inactive) | GI50 [42]: 16.7 µM (inactive) | GI50 [58]: 30.7 µM (inactive) | GI50 [43]: 24.9 µM (inactive) | GI50 [44]: 41.1 µM (inactive) | GI50 [45]: > 100 µM (inactive) | GI50 [46]: 97.3 µM (inactive) | GI50 [47]: 30.2 µM (inactive) | GI50 [48]: 22.6 µM (inactive)
